In patent US8518883B2, “Method of reducing deleterious effects of ischemia by administration of a thrombopoietin receptor ligand” (MCW Research Foundation, Inc., priority 2006, dated 2013):

How the values were obtained:
Sprague Dawley rats = assay: Coronary artery ligation model, Tpo given after the onset of ischemia; assay type: in vivo, rat; conditions: Tpo 0.05 μg/kg 15 min prior to reperfusion (15 min after onset of 30 min regional ischemia)
Description: FIG. 9 is a graphic depiction of the effect of Tpo (0.05 μg/kg) on myocardial infarct size in vivo (as percentage % of area at risk) when administered intravenously 15 minutes after the onset of 30 minutes regional myocardial ischemia in vivo induced by suture ligation of the left main coronary artery and 3 hours reperfusion. *=P<0.05, with Tpo vs. without Tpo (control).
Animals used in this study were adult male Sprague Dawley rats (200-350 g, generally 300 g). Animals were housed under standard conditions and allowed to feed ad lib. The Animal Care and Use Committee of the Medical College of Wisconsin approved all procedures performed in accordance with the regulations adopted by the National Institutes of Health.
A myocardial infarction was produced via the ligation of the left main artery using 6-0 prolene suture (See, e.g., Clements-Jewery, et al., supra, 2002; Farkas, et al., supra, 2002). Rats were anesthetized with sodium pentobarbital (50 mg/kg i.p.). The left main coronary artery was identified and ligated with a 5-0 Prolene suture threaded through a polyethylene tube to act as an occluder. […]
The heart was sectioned in 2 mm segments from apex to atrio-ventricular groove in a transverse fashion. Each segment was recorded and placed in formalin. […] The percentage of infarction of each slide was expressed as a percentage of the entire area of the heart.

in vitro rat hearts = assay: Isolated perfused (Langendorff) rat heart, 25 min global ischemia and 180 min reperfusion: hemodynamics, infarct size, recovery of LVDP
Description: The study was directed to determining whether Tpo (0.01-10.0 ng/ml) confers immediate cardioprotection in rat hearts and the contribution of potassium channels to the underlying mechanism. Hearts from normoxic 8 week old Sprague Dawley rats (n=8/group) were isolated and perfused in the Langendorff mode. Hemodynamic function was recorded under steady-state conditions prior to 25 minutes global no flow ischemia and 180 minutes reperfusion.
Isolated heart perfusion. Isolated rat hearts were perfused with bicarbonate buffer at constant pressure in a retrograde manner and instrumented as described in Baker, et al., Am. J. Physiol. Heart Circulat. Physiol. 278:1395-1400, 2000 potassium channel blockers were added to this perfusate as needed. A 3-way tap, located immediately above the site of cannulation, allowed the entire perfusate to be diverted away from the heart to produce global, no-flow ischemia. Reperfusion was achieved by repositioning of the tap to allow perfusate to be delivered to the heart. Left ventricular function was monitored continuously throughout each experiment as described in Baker, et al., supra, 2000. End-diastolic pressure was initially set to 3 mmHg for 2 minutes. The balloon was then progressively inflated with a microsyringe to set end-diastolic pressures to 8 mmHg for the left ventricle, with developed pressure and heart rate recorded during steady-state conditions. Coronary flow rate was measured throughout the experiment by timed collections of the coronary effluent from the right side of the heart into a graduated cylinder. Coronary flow rate was expressed as milliliters per minute per gram wet weight.
Resistance to myocardial ischemia. Hearts from adult rats were perfused with bicarbonate buffer, and biventricular function was monitored continuously throughout each experiment as described in Baker, et al., supra, 2000. For concentration response studies, hearts were then perfused with Tpo (0.01-10.0 ng/ml) for 15 minutes prior to 25 minutes ischemia and 180 minutes reperfusion. For mechanism studies with potassium channel blockers, hearts were perfused with drugs for 15 minutes alone followed by 15 minutes in combination with Tpo prior to ischemia. Hearts perfused with potassium channel blockers alone in the absence of Tpo for 30 minutes prior to ischemia served as untreated controls for these studies. Recovery of post-ischemic left ventricular developed pressure was expressed as a percentage of its pre-drug, pre-ischemic value.
Assessment of ventricular function. Left ventricular function was monitored continuously throughout each experiment as described in Baker, et al., supra, 2000. Recovery of left ventricular pressure following ischemia was used to assess resistance to ischemia.
Measurement of infarct size/area at risk at 3 hours reperfusion were used to assess resistance to myocardial ischemia. For characterization of infarction size, hearts were perfused with 10 ml bicarbonate buffer containing triphenyltetrazolium chloride (SIGMA) at 37° C.
The heart was sectioned in 2 mm segments from apex to atrio-ventricular groove in a transverse fashion. Each segment was recorded and placed in formalin. After twenty-four (24) hours, the specimen was digitally photographed in a camera mount to normalize specimen-to-lens distance. Each photograph was then appended to Adobe Photoshop (Adobe™) to measure pixel density of infarcted versus non-infarcted areas. The percentage of infarction of each slide was expressed as a percentage of the entire area of the heart.
Hearts from male Sprague Dawley rats at 8 weeks of age were isolated and perfused with Tpo at 0.01, 0.1, 1.0, and 10 ng/ml for 15 minutes prior to 25 minutes global ischemia and 180 minutes reperfusion (FIG. 2). Tpo (1.0 ng/ml) reduced coronary flow rate prior to ischemia from 6±1 ml/min/g to 5±1 ml/min/g, increased left ventricular developed pressure from 119±15 mmHg to 151±19 mmHg and decreased heart rate from 240±34 beats/minute to 228±17 beats/minute. […]

[1] = POST DRUG, Tpo 0.01 ng/ml for 15 min
[2] = POST DRUG, Tpo 0.1 ng/ml for 15 min
[3] = POST DRUG, Tpo 1.0 ng/ml for 15 min
[4] = POST DRUG, Tpo 10.0 ng/ml for 15 min
[5] = REPERFUSION, Tpo 0.01 ng/ml, 25 min global ischemia, 180 min reperfusion
[6] = REPERFUSION, Tpo 0.1 ng/ml, 25 min global ischemia, 180 min reperfusion
[7] = REPERFUSION, Tpo 1.0 ng/ml, 25 min global ischemia, 180 min reperfusion
[8] = REPERFUSION, Tpo 10.0 ng/ml, 25 min global ischemia, 180 min reperfusion
[9] = Tpo 0.01-10.0 ng/ml for 15 min prior to 25 min global ischemia, 180 min reperfusion

With Thrombopoietin [Tpo] the Myocardial infarct size (Sprague Dawley rats) was “decrease”, the “Infarct size following ischemia and reperfusion” value (in vitro rat hearts; 'U' shaped concentration-dependent, Tpo 0.01-10.0 ng/ml) was “reduced” and the Coronary flow rate (in vitro rat hearts; [1]) was 5 ± 1 mL/min/g. For the same substance, the Heart rate (in vitro rat hearts; [1]) was 202 ± 16 beats/min, the “Left ventricle developed pressure” value (in vitro rat hearts; [1]) was 156 ± 13 mmHg and the Coronary flow rate (in vitro rat hearts; [2]) was 5 ± 1 mL/min/g. For the same substance, the Heart rate (in vitro rat hearts; [2]) was 233 ± 12 beats/min, the “Left ventricle developed pressure” value (in vitro rat hearts; [2]) was 158 ± 13 mmHg and the Coronary flow rate (in vitro rat hearts; [3]) was 5 ± 1 mL/min/g. The Heart rate (in vitro rat hearts; [3]) was 228±17 beats/min, the “Left ventricle developed pressure” value (in vitro rat hearts; [3]) was 151±19 mmHg and the Coronary flow rate (in vitro rat hearts; [4]) was 6 ± 1 mL/min/g. For the same substance, the Heart rate (in vitro rat hearts; [4]) was 220 ± 10 beats/min, the “Left ventricle developed pressure” value (in vitro rat hearts; [4]) was 172 ± 26 mmHg and the Coronary flow rate (in vitro rat hearts; PRE DRUG, Tpo 0.01 ng/ml group) was 6 ± 1 mL/min/g. For the same substance, the Heart rate (in vitro rat hearts; PRE DRUG, Tpo 0.01 ng/ml group) was 225 ± 31 beats/min, the “Left ventricle developed pressure” value (in vitro rat hearts; PRE DRUG, Tpo 0.01 ng/ml group) was 130 ± 13 mmHg and the Coronary flow rate (in vitro rat hearts; PRE DRUG, Tpo 0.1 ng/ml group) was 5 ± 1 mL/min/g. The Heart rate (in vitro rat hearts; PRE DRUG, Tpo 0.1 ng/ml group) was 228 ± 17 beats/min, the “Left ventricle developed pressure” value (in vitro rat hearts; PRE DRUG, Tpo 0.1 ng/ml group) was 120 ± 15 mmHg and the Coronary flow rate (in vitro rat hearts; PRE DRUG, Tpo 1.0 ng/ml group) was 6 ± 1 mL/min/g. The Heart rate (in vitro rat hearts; PRE DRUG, Tpo 1.0 ng/ml group) was 240±34 beats/min, the “Left ventricle developed pressure” value (in vitro rat hearts; PRE DRUG, Tpo 1.0 ng/ml group) was 119±15 mmHg and the Coronary flow rate (in vitro rat hearts; PRE DRUG, Tpo 10.0 ng/ml group) was 6 ± 1 mL/min/g. The Heart rate (in vitro rat hearts; PRE DRUG, Tpo 10.0 ng/ml group) was 226 ± 29 beats/min, the “Left ventricle developed pressure” value (in vitro rat hearts; PRE DRUG, Tpo 10.0 ng/ml group) was 134 ± 13 mmHg and the Coronary flow rate (in vitro rat hearts; [5]) was 3 ± 1 mL/min/g. The Heart rate (in vitro rat hearts; [5]) was 184 ± 31 beats/min, the “Left ventricle developed pressure” value (in vitro rat hearts; [5]) was 52 ± 9 mmHg and the Coronary flow rate (in vitro rat hearts; [6]) was 3 ± 1 mL/min/g. For the same substance, the Heart rate (in vitro rat hearts; [6]) was 197 ± 36 beats/min, the “Left ventricle developed pressure” value (in vitro rat hearts; [6]) was 64 ± 11 mmHg and the Coronary flow rate (in vitro rat hearts; [7]) was 4 ± 1 mL/min/g. The Heart rate (in vitro rat hearts; [7]) was 204 ± 41 beats/min, the “Left ventricle developed pressure” value (in vitro rat hearts; [7]) was 62 ± 8 mmHg and the Coronary flow rate (in vitro rat hearts; [8]) was 4 ± 1 mL/min/g. The Heart rate (in vitro rat hearts; [8]) was 183 ± 16 beats/min, the “Left ventricle developed pressure” value (in vitro rat hearts; [8]) was 64 ± 10 mmHg and the “Recovery of coronary flow rate” value (in vitro rat hearts; Tpo 1.0 ng/ml) was “unaffected”. The “Recovery of heart rate” value (in vitro rat hearts; Tpo 1.0 ng/ml, untreated hearts 94±6%) was 85±7 % of pre-ischemic values, the “Optimal concentration of Tpo that afforded maximum reduction of infarct size” value (in vitro rat hearts; [9]) was 1.0 ng/mL and the “Optimal concentration that afforded maximal recovery of post-ischemic ventricular developed pressure” value (in vitro rat hearts; [9]) was 1.0 ng/mL. For the same substance, the “Recovery of left ventricular developed pressure following ischemia and reperfusion” value (in vitro rat hearts; bell-shaped concentration-dependent, Tpo 0.01-10.0 ng/ml) was “increased”.
